Columns and labels:
Test in all cases: Rescue concentration, modified checkerboard MIC adjuvant assay
Assay type in all cases: cell-based
[1] = tested on: Pseudomonas aeruginosa MDR 5805; conditions: P. aeruginosa MDR 5805
Description: (§1) Reference microorganisms as well as clinical strains used to evaluate the antimicrobial adjuvant properties of SP-6azaBIM 125 and SP-6azaBIM 136 are listed in Table 3. Clinical strains of bacteria were kindly provided by the Faculty of Medical Sciences, UWI, St. Augustine, Trinidad. All bacterial cultures were cryopreserved in 30% glycerol/Brain Heart Infusion (BHI) at −80° C. Cultures were revived on BHI agar (Oxoid Ltd, England) and maintained at 4° C. until needed.
(§2) Prior to each experiment, cultures were streaked onto clean BHI agar plates and incubated at 35° C. for 24 hours. Colonies of the respective cultures were selected and inoculated in phosphate buffer saline (pH 7.5) to a 0.5 McFarland turbidity standard (equivalent to 10^8 CFU mL^−1). For inhibitory studies the bacterial suspensions were diluted 1:100 in cation-adjusted Mueller Hinton Broth (ca-MHB) (Oxoid Ltd, England). Fastidious bacteria including Streptococcus pneumoniae, Haemophilus infuenzae and Clostridium difficile were maintained on BHI agar with 5% defibrinated sheep blood and diluted in ca-MHB with 5% defibrinated sheep blood.
(§3) Antibiotic powders used in this study were purchased from Sigma Aldrich Ltd. (WI, USA). Antibiotic stock solutions were made at 50 mg mL^−1 according to Andrews (2001) and working solutions were prepared 24 h before use and stored at 4° C.
(§4) HCl salts of the of the SP-azaBIM test compounds were prepared prior to testing and stored at 4° C. Working preparations of each compound were made to 1 mg/mL in sterile deionised water.
(§5) The antibiotic adjuvant activity of the SPazaBIMs were evaluated in combination with representative antibiotics (representing 13 antibiotic classes) against the 19 pathogens strains listed in Table 3. To assess the adjuvant properties of the SP-azaBIM molecules, a modified checkerboard minimum inhibitory concentration assay was used. A fixed concentration of the respective antibiotic (susceptible breakpoint concentration) was mixed with a twofold dilution series of the test SP-azaBIM (FIG. 1). This was to determine the concentration of SP-azaBIM needed potentiate the antibiotic at a clinically susceptible breakpoint concentration. Antibiotic susceptible breakpoint concentrations for the respective bacteria were determined using Clinical Laboratory Standards Institute (CLSI) criteria M100 ED31.
(§6) In this study, only those antibiotics to which the bacterial was classed as resistant were included in the adjuvant assays. In this assay we recorded the rescue concentration of the SP-BIM for a respective antibiotic. The rescue concentration was defined as the concentration of the adjuvant that reduces the minimum inhibitory concentration (MIC) of an antibiotic to the susceptibility breakpoint.
(§7) Immediately prior to testing, the respective antibiotic and SP-azaBIM was dissolved in sterile deionised water at 20× the required test concentration. Each microtiter well was then inoculated with 180 μl of bacterial inoculum of 10^6 CFU/ml in ca-MHB, and 10 μl each if the antibiotic and SP-azaBIM was added to the plates. These plates were then incubated at 35° C. for 24 h under aerobic conditions. A similar method was followed for the fastidious pathogens except that they were cultured in ca-MHB with 5% sheep blood and 5% CO2.
(§8) Bacterial growth was visually inspected after the incubation period and the rescue concentration of the test SP-azaBIM was determined as the lowest concentration of the compound needed to reduce bacterial growth by 99.99% at the susceptible breakpoint concentration of the antibiotic. For example, CLSI states that Pseudomonas aeruginosa is susceptible to the Imipenem if the MIC is ≤2 μg mL^−1. If the bacteria can tolerate this concentration in vitro, then the bacteria has an intermediate or absolute resistance toward that antibiotic. […]

[2] = tested on: Enterococcus faecalis ATCC 51299; conditions: E. faecalis ATCC 51299
Description: as §1, §2, §3, §4, §5, §6, §7, §8

[3] = tested on: Stenotrophomonas maltophilia MDR 7785; conditions: S. maltophilia MDR 7785
Description: as §1, §2, §3, §4, §5, §6, §7, §8

[4] = tested on: Acinetobacter baumannii clinical isolate 9978; conditions: A. baumannii clinical isolate 9978
Description: as §1, §2, §3, §4, §5, §6, §7, §8

[5] = tested on: Klebsiella pneumoniae ATCC 49472; conditions: K. pneumoniae ATCC 49472
Description: as §1, §2, §3, §4, §5, §6, §7, §8

[6] = tested on: Klebsiella pneumoniae ATCC BAA-2814; conditions: K. pneumoniae ATCC BAA-2814
Description: as §1, §2, §3, §4, §5, §6, §7, §8

[7] = tested on: Escherichia coli ATCC 35150; conditions: E. coli ATCC 35150
Description: as §1, §2, §3, §4, §5, §6, §7, §8

[8] = tested on: Staphylococcus aureus ATCC BAA-2312; conditions: S. aureus ATCC BAA-2312
Description: as §1, §2, §3, §4, §5, §6, §7, §8

[9] = Amox at susceptible breakpoint 8 μg mL^−1
[10] = Col at susceptible breakpoint 2 μg mL^−1
[11] = Gen at susceptible breakpoint 4 μg mL^−1
[12] = Imi at susceptible breakpoint 2 μg mL^−1
[13] = Mero at susceptible breakpoint 2 μg mL^−1
[14] = Pol B at susceptible breakpoint 2 μg mL^−1
[15] = Amp at susceptible breakpoint 8 μg mL^−1
[16] = Chl at susceptible breakpoint 8 μg mL^−1
[17] = Dox at susceptible breakpoint 4 μg mL^−1
[18] = Tri at susceptible breakpoint 8 μg mL^−1
[19] = Cef at susceptible breakpoint 8 μg mL^−1
[20] = Ceph at susceptible breakpoint 8 μg mL^−1
[21] = Col at susceptible breakpoint 8 μg mL^−1
[22] = Imi at susceptible breakpoint 1 μg mL^−1

SMILES: Brc1ccc(C(c2c[nH]c3cnccc23)c2c[nH]c3cnccc23)cc1 [SP-6azaBIM 125, 3,3′-((4-bromophenyl)methylene)bis(1H-pyrrolo[2,3-c]pyridine)]
- Rescue concentration, Amox (8) [1, 9]: 128 µg/mL
- Rescue concentration, Col (2) [1, 10]: >128 µg/mL
- Rescue concentration, Gen (4) [1, 11]: 16 µg/mL
- Rescue concentration, Imi (2) [1, 12]: >128 µg/mL
- Rescue concentration, Mero (2) [1, 13]: >128 µg/mL
- Rescue concentration, Pol B (2) [1, 14]: >128 µg/mL
- Rescue concentration, Amp (8) [2, 15]: >128 µg/mL
- Rescue concentration, Chl (8) [2, 16]: >128 µg/mL
- Rescue concentration, Dox (4) [2, 17]: >128 µg/mL
- Rescue concentration, Ery (0.5) ([2]; Ery at susceptible breakpoint 0.5 μg mL^−1): >128 µg/mL
- Rescue concentration, Tri (8) [2, 18]: >128 µg/mL
- Rescue concentration, Van (4) ([2]; Van at susceptible breakpoint 4 μg mL^−1): >128 µg/mL
- Rescue concentration, Cef (8) [3, 19]: 8 µg/mL
- Rescue concentration, Ceph (8) [3, 20]: 8 µg/mL
- Rescue concentration, Chl (8) [3, 16]: 4 µg/mL
- Rescue concentration, Cip (2) ([3]; Cip at susceptible breakpoint 2 μg mL^−1): 2 µg/mL
- Rescue concentration, Gen (4) [3, 11]: 8 µg/mL
- Rescue concentration, Imi (2) [3, 12]: 16 µg/mL
- Rescue concentration, Mero (2) [3, 13]: 4 µg/mL
- Rescue concentration, Tri (2) ([3]; Tri at susceptible breakpoint 2 μg mL^−1): 64 µg/mL
- Rescue concentration, Amox (8) [4, 9]: 16 µg/mL
- Rescue concentration, Cef (8) [4, 19]: 2 µg/mL
- Rescue concentration, Col (2) [4, 10]: 4 µg/mL
- Rescue concentration, Gen (4) [4, 11]: 2 µg/mL
- Rescue concentration, Imi (2) [4, 12]: 4 µg/mL
- Rescue concentration, Mero (2) [4, 13]: 8 µg/mL
- Rescue concentration, Pol B (2) [4, 14]: 16 µg/mL
- Rescue concentration, Amox (8) [5, 9]: 4 µg/mL
- Rescue concentration, Amp (8) [5, 15]: 16 µg/mL
- Rescue concentration, Col (8) [5, 21]: 4 µg/mL
- Rescue concentration, Imi (1) [5, 22]: 2 µg/mL
- Rescue concentration, Mero (1) ([5]; Mero at susceptible breakpoint 1 μg mL^−1): 4 µg/mL
- Rescue concentration, Pol B (8) ([5]; Pol B at susceptible breakpoint 8 μg mL^−1): 4 µg/mL
- Rescue concentration, Amox (8) [6, 9]: 4 µg/mL
- Rescue concentration, Amp (8) [6, 15]: 16 µg/mL
- Rescue concentration, Aze (4) ([6]; Aze at susceptible breakpoint 4 μg mL^−1): 4 µg/mL
- Rescue concentration, Azi (16) ([6]; Azi at susceptible breakpoint 16 μg mL^−1): 32 µg/mL
- Rescue concentration, Cef (16) ([6]; Cef at susceptible breakpoint 16 μg mL^−1): 16 µg/mL
- Rescue concentration, Ceph (8) [6, 20]: 32 µg/mL
- Rescue concentration, Chl (8) [6, 16]: 32 µg/mL
- Rescue concentration, Col (8) [6, 21]: 4 µg/mL
- Rescue concentration, Dox (4) [6, 17]: 8 µg/mL
- Rescue concentration, Gen (4) [6, 11]: 16 µg/mL
- Rescue concentration, Imi (1) [6, 22]: 2 µg/mL
- Rescue concentration, Tet (4) ([6]; Tet at susceptible breakpoint 4 μg mL^−1): 32 µg/mL
- Rescue concentration, Cip (0.25) ([7]; Cip at susceptible breakpoint 0.25 μg mL^−1): 8 µg/mL
- Rescue concentration, Col (8) [7, 21]: 2 µg/mL
- Rescue concentration, Dox (4) [7, 17]: 32 µg/mL
- Rescue concentration, Imi (1) [7, 22]: 4 µg/mL
- Rescue concentration, Azi (2) ([8]; Azi at susceptible breakpoint 2 μg mL^−1): >128 µg/mL
- Rescue concentration, Gen (4) [8, 11]: 64 µg/mL
- Rescue concentration, Pen (0.12) ([8]; Pen at susceptible breakpoint 0.12 μg mL^−1): >128 µg/mL
- Rescue concentration, Tri (8) [8, 18]: >128 µg/mL
- Rescue concentration, Van (2) ([8]; Van at susceptible breakpoint 2 μg mL^−1): >128 µg/mL
